# From patent US20230265094A1, “RIPK1 INHIBITORS AND METHODS OF USE” (Merck Sharp & Dohme LLC, priority 2020, published 2023)
# Counter-ions that a name gives are not always drawn.
# Target: T1, RIPK1 (Homo sapiens, UniProt Q13546)
# T1 construct: recombinant GST-RIPK1 kinase domain (residues 1-327) enzyme produced from baculovirus-transfected Sf21 cells; host or cells: baculovirus-transfected Sf21 insect cells
# T1 sequence (Q13546 1-327): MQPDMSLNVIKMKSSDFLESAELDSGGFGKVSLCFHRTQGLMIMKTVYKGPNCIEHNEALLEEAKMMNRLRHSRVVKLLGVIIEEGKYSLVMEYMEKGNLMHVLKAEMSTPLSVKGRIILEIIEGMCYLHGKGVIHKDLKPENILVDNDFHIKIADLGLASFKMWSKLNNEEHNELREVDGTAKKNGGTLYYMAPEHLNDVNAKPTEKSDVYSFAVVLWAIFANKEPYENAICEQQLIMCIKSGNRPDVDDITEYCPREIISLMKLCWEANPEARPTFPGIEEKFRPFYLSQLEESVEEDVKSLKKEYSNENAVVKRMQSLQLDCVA
# Experiment: RIPK1-ADP-Glo enzymatic assay
# Format: biochemical
# Details: ADP-Glo luminescent ADP detection; 25 nM GST-RIPK1 kinase domain (residues 1-327), 300 μM ATP, dephosphorylated-MBP substrate; 30 min pre-incubation, 150 min reaction
# Experimental: RIPK1-ADP-Glo Enzymatic Assay
# The enzymatic activity of RIPK1 is measured using an assay derived from ADP-Glo kit (Promega™), which provides a luminescent-based ADP detection system. Specifically, the ADP generated by RIPK1 kinase is proportionally detected as luminescent signals in a homogenous fashion. In this context, the assessment of the inhibitory effect of small molecules (EC50) is measured by the effectiveness of the compounds to inhibit the ATP to ADP conversion by RIPK1.
# In this assay, the potency (EC50) of each compound was determined from a ten-point (1:3 serial dilution; top compound concentration of 100000 nM) titration curve using the following outlined procedure. To each well of a white ProxiPlus 384 well-plate, 30 nL of compound (1% DMSO in final assay volume of 3 μL) was dispensed, followed by the addition of 2 μL of 1×assay buffer (25 mM Hepes 7.3, 20 mM MgCl2, 50 mM NaCl, 1 mM DTT, 0.005% Tween20, and 0.02% BSA) containing 37.5 nM of GST-RIPK1 (recombinant GST-RIPK1 kinase domain (residues 1-327) enzyme produced from baculovirus-transfected Sf21 cells: MW=62 kDa). Plates were placed in an ambient temperature humidified chamber for a 30 minutes pre-incubation with compound. Subsequently, each reaction was initiated by the addition of 1 μL 1×assay buffer containing 900 μM ATP and […] dephosphorylated-MBP substrate. The final reaction in each well of 3 μL consists of 25 nM of GST-RIPK1, 300 μM ATP, and 3 μM dephosphorylated-MBP. Kinase reactions were allowed to proceed for 150 minutes prior to adding ADP-Glo reagents per Promega's outlined kit protocol. Dose-response curves were generated by plotting percent effect (% product conversion; Y-axis) vs. Log10 compound concentrations (X-axis). EC50 values were calculated using a non-linear regression, four-parameters sigmoidal dose-response model.
row,EC50,SMILES
1,6.6 nM,"N#Cc1cc(OC2CN(C(=O)N3N=CC[C@H]3c3cc(F)cc(F)c3)C2)ccn1 [Example 3.1, (S)-4-((1-(5-(3,5-difluorophenyl)-4,5-dihydro-1H-pyrazole-1-carbonyl)azetidin-3-yl)oxy)picolinonitrile, TFA Salt]"
2,11.4 nM,"O=C(N1CC(Cc2ccccc2)C1)N1N=CC[C@H]1c1ccc(Cl)cc1 [Example 2.10, (S)-(3-benzylazetidin-1-yl)(5-(4-chlorophenyl)-4,5-dihydro-1H-pyrazol-1-yl)methanone]"
3,27.2 nM,"CCOC1CN(C(=O)N2N=CC[C@H]2c2cc(F)cc(F)c2)C1 [Example 2.2, (S)-(5-(3,5-difluorophenyl)-4,5-dihydro-1H-pyrazol-1-yl)(3-ethoxyazetidin-1-yl)methanone]"
4,8.9 nM,"Cc1csc(OC2CN(C(=O)N3N=CC[C@H]3c3cc(F)cc(F)c3)C2)n1 [Example 3.5, (S)-(5-(3,5-difluorophenyl)-4,5-dihydro-1H-pyrazol-1-yl)(3-((4-methylthiazol-2-yl)oxy)azetidin-1-yl)methanone, TFA salt]"
5,1490 nM,"Cc1nc(OC2CN(C(=O)N3N=CC[C@H]3c3cc(F)cc(F)c3)C2)cc(C(C)(C)O)n1 [Example 3.7, (S)-(5-(3,5-difluorophenyl)-4,5-dihydro-1H-pyrazol-1-yl)(3-((6-(2-hydroxypropan-2-yl)-2-methylpyrimidin-4-yl)oxy)azetidin-1-yl)methanone, TFA salt]"
6,17.1 nM,"CC1(Oc2ccc(F)cc2)CN(C(=O)N2N=CC[C@H]2c2cncc(F)c2)C1 (single isomer, unassigned) [Example 2.31]"
7,85.9 nM,"C[C@@H]1[C@H](Oc2ccnc(C#N)c2)CN1C(=O)N1N=CC[C@H]1c1cc(F)cc(F)c1 [Example 2.38, 4-(((2R,3R)-1-((S)-5-(3,5-difluorophenyl)-4,5-dihydro-1H-pyrazole-1-carbonyl)-2-methylazetidin-3-yl)oxy)picolinonitrile]"
8,75.9 nM,"Cc1ncnc(OC2CN(C(=O)N3N=CC[C@H]3c3cc(F)cc(F)c3)C2)c1C [Example 3.3, (S)-(5-(3,5-difluorophenyl)-4,5-dihydro-1H-pyrazol-1-yl)(3-((5,6-dimethylpyrimidin-4-yl)oxy)azetidin-1-yl)methanone, TFA salt]"
9,46.7 nM,"CC(c1ccccc1)C1CN(C(=O)N2N=CC[C@H]2c2cc(F)cc(F)c2)C1 (single isomer, unassigned) [Example 2.43, ((S)-5-(3,5-difluorophenyl)-4,5-dihydro-1H-pyrazol-1-yl)(3-((S or R)-1-phenylethyl)azetidin-1-yl)methanone]"
10,14.7 nM,"Cc1ncc([C@@H]2CC=NN2C(=O)N2CC(Oc3ccc(F)cc3)C2)cc1F (single isomer, unassigned) [Example 2.40]"

# Second part, the compound before the results:
row,SMILES,EC50
1,"O=C(N1CC2(C1)CN(c1ccccn1)C2)N1N=CC[C@H]1c1cc(F)cc(F)c1 [Example 1.19, (S)-(5-(3,5-difluorophenyl)-4,5-dihydro-1H-pyrazol-1-yl)(6-(pyridin-2-yl)-2,6-diazaspiro[3.3]heptan-2-yl)methanone, TFA salt]",3450 nM
2,"C[C@@H]1[C@H](Oc2ccccc2)CN1C(=O)N1N=CC[C@H]1c1cc(F)cc(F)c1 (racemic) [Example 1.11, ((S)-5-(3,5-difluorophenyl)-4,5-dihydro-1H-pyrazol-1-yl)((2R,3R and 2S,3S)-2-methyl-3-phenoxyazetidin-1-yl)methanone, TFA salt]",11.8 nM
3,"C[C@@H]1[C@H](Oc2ccccc2)CN1C(=O)N1N=CC[C@H]1c1cc(F)cc(F)c1 (single isomer, unassigned) [Example 1.12, ((S)-5-(3,5-difluorophenyl)-4,5-dihydro-1H-pyrazol-1-yl)((2R,3R or 2S,3S)-2-methyl-3-phenoxyazetidin-1-yl)methanone, TFA salt]",8.8 nM
4,"CC1(Oc2ccccc2)CN(C(=O)N2N=CC[C@H]2c2cc(F)cc(F)c2)C1 [Example 1.1, (S)-(5-(3,5-difluorophenyl)-4,5-dihydro-1H-pyrazol-1-yl)(3-methyl-3-phenoxyazetidin-1-yl)methanone, TFA salt]",2.5 nM
5,"Cc1noc(C2CN(C(=O)N3N=CC[C@H]3c3cc(F)cc(F)c3)C2)n1 [Example 1.55, (S)-(5-(3,5-difluorophenyl)-4,5-dihydro-1H-pyrazol-1-yl)(3-(3-methyl-1,2,4-oxadiazol-5-yl)azetidin-1-yl)methanone]",175 nM
6,"CC1CN(C(=O)N2N=CC[C@H]2c2cc(F)cc(F)c2)C1 [Example 1.40, (S)-(5-(3,5-difluorophenyl)-4,5-dihydro-1H-pyrazol-1-yl)(3-methylazetidin-1-yl)methanone]",26 nM
7,"O=C(N1CC(C(F)F)C1)N1N=CC[C@H]1c1cc(F)cc(F)c1 [Example 1.37, (S)-(3-(difluoromethyl)azetidin-1-yl)(5-(3,5-difluorophenyl)-4,5-dihydro-1H-pyrazol-1-yl)methanone]",22.6 nM
8,"CS(=O)(=O)N1CCC2(CC1)CN(C(=O)N1N=CC[C@H]1c1cc(F)cc(F)c1)C2 [Example 1.20, (S)-(5-(3,5-difluorophenyl)-4,5-dihydro-1H-pyrazol-1-yl)(7-(methylsulfonyl)-2,7-diazaspiro[3.5]nonan-2-yl)methanone]",1320 nM
9,"O=C(N1CC2(CCCO2)C1)N1N=CC[C@H]1c1cc(F)cc(F)c1 [Example 1.26, (S)-(5-(3,5-difluorophenyl)-4,5-dihydro-1H-pyrazol-1-yl)(5-oxa-2-azaspiro[3.4]octan-2-yl)methanone]",47.4 nM
10,"O=C(N1CC(F)C1)N1N=CC[C@H]1c1cc(F)cc(F)c1 [Example 1.31, (S)-(5-(3,5-difluorophenyl)-4,5-dihydro-1H-pyrazol-1-yl)(3-fluoroazetidin-1-yl)methanone]",38.4 nM
11,"O=C(N1CC(Oc2ccccc2)C1)N1N=CC[C@@H]1c1cc(F)cc(F)c1 [Example 1.4, (R)-(5-(3,5-difluorophenyl)-4,5-dihydro-1H-pyrazol-1-yl)(3-phenoxyazetidin-1-yl)methanone, TFA salt]",600 nM
12,"O=C(N1CC(Oc2ccncc2)C1)N1N=CC[C@H]1c1cc(F)cc(F)c1 [Example 1.8, (S)-(5-(3,5-difluorophenyl)-4,5-dihydro-1H-pyrazol-1-yl)(3-(pyridin-4-yloxy)azetidin-1-yl)methanone, TFA salt]",8.7 nM
13,"O=C(N1CC2(CCCOC2)C1)N1N=CC[C@H]1c1cc(F)cc(F)c1 [Example 1.53, (S)-(5-(3,5-difluorophenyl)-4,5-dihydro-1H-pyrazol-1-yl)(6-oxa-2-azaspiro[3.5]nonan-2-yl)methanone]",530 nM
14,"CC(C)OC1CN(C(=O)N2N=CC[C@H]2c2cc(F)cc(F)c2)C1 [Example 1.24, (S)-(5-(3,5-difluorophenyl)-4,5-dihydro-1H-pyrazol-1-yl)(3-isopropoxyazetidin-1-yl)methanone]",29.9 nM
15,"COC1(C)CN(C(=O)N2N=CC[C@H]2c2cc(F)cc(F)c2)C1 [Example 1.45, (S)-(5-(3,5-difluorophenyl)-4,5-dihydro-1H-pyrazol-1-yl)(3-methoxy-3-methylazetidin-1-yl)methanone]",98.5 nM
16,"COCCC1CN(C(=O)N2N=CC[C@H]2c2cc(F)cc(F)c2)C1 [Example 1.38, (S)-(5-(3,5-difluorophenyl)-4,5-dihydro-1H-pyrazol-1-yl)(3-(2-methoxyethyl)azetidin-1-yl)methanone]",105 nM
17,"CCOc1cccc(CC2CN(C(=O)N3N=CC[C@H]3c3cc(F)cc(F)c3)C2)c1 [Example 1.48, (S)-(5-(3,5-difluorophenyl)-4,5-dihydro-1H-pyrazol-1-yl)(3-(3-ethoxybenzyl)azetidin-1-yl)methanone]",17.1 nM
18,"O=C(N1CC(F)(F)C1)N1N=CC[C@H]1c1cc(F)cc(F)c1 [Example 1.32, (S)-(3,3-difluoroazetidin-1-yl)(5-(3,5-difluorophenyl)-4,5-dihydro-1H-pyrazol-1-yl)methanone]",17.2 nM
19,"C[C@H]1[C@@H](Oc2ccccc2)CN1C(=O)N1N=CC[C@H]1c1cc(F)cc(F)c1 (single isomer, unassigned) [Example 1.13, ((S)-5-(3,5-difluorophenyl)-4,5-dihydro-1H-pyrazol-1-yl)((2S,3S or 2R,3R)-2-methyl-3-phenoxyazetidin-1-yl)methanone, TFA salt]",7.6 nM
